Test results taken from US20220330549A1, “USE OF N-BENZYLBENZAMIDE-BASED COMPOUND AS HERBICIDE” (Northwest A&F University, priority 2020, published 2022).

What was measured:
Type in all cases: in vivo
Digitaria sanguinalis [1] = assay: Herbicidal activity test for indoor pre-emergence soil treatment; design: key: 1-9 levels; higher = more weed remaining vs blank control; settings: 150 g a.i./ha, visual inspection 21 days after treatment
Procedure, shortened: (§1)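 Compounds were formulated as 10% emulsifiable concentrates and sprayed onto the soil 24 h after sowing, at 150 g(a.i.)/ha. Soil was sandy loam (≤2% organic matter), with seeds under 0.5–2.0 cm cover, per NY/T 1155.3-2006. Visual 1–9 ratings relative to blank control were made after 21 days.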

Amaranthus retroflexus [2] = assay: as above; design: key: 1-9 levels; higher = more weed remaining vs blank control; settings: 150 g a.i./ha, visual inspection 21 days after treatment
Procedure, shortened: as §1

Piemarker [3] = assay: as above; design: key: level 1-9; higher = more weed remaining vs blank control; settings: 150 g a.i./ha, visual inspection 21 days after treatment
Procedure, shortened: as §1

Barnyard grass [4] = assay: as above; design: key: level 1-9; higher = more weed remaining vs blank control; settings: 150 g a.i./ha, visual inspection 21 days after treatment
Procedure, shortened: as §1

green bristlegrass [5] = assay: as above; design: key: level 1-9; higher = more weed remaining vs blank control; settings: 150 g a.i./ha, visual inspection 21 days after treatment
Procedure, shortened: as §1

Humulus scandens [6] = assay: as above; settings: 150 g a.i./ha, visual inspection 21 days after treatment
Procedure, shortened: as §1

Digitaria sanguinalis [7] = assay: Herbicidal activity test for indoor post-emergence spraying on stems and leaves; design: key: grade level by weed remaining vs blank control, e.g. 5 = 10.1-15%; settings: 150 g a.i./ha, visual inspection 21 days after treatment
Procedure, shortened: (§2)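 Visual inspection at 21 days after treatment gave a level rating, each level defined as a percentage band of the weed remaining in the blank control area. Plants were sprayed on stems and leaves after emergence, following NY/T 1155.4-2006.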

Piemarker [8] = assay: as above; design: key: grade level by weed remaining vs blank control, e.g. 5 = 10.1-15%; settings: 150 g a.i./ha, visual inspection 21 days after treatment
Procedure, shortened: as §2

Barnyard grass [9] = assay: as above; design: key: grade level by weed remaining vs blank control, e.g. 5 = 10.1-15%; settings: 150 g a.i./ha, visual inspection 21 days after treatment
Procedure, shortened: as §2

Amaranthus retroflexus [10] = assay: as above; design: key: grade level by weed remaining vs blank control, e.g. 5 = 10.1-15%; settings: 150 g a.i./ha, visual inspection 21 days after treatment
Procedure, shortened: as §2

Humulus scandens [11] = assay: as above; design: key: grade level by weed remaining vs blank control, e.g. 5 = 10.1-15%; settings: 150 g a.i./ha, visual inspection 21 days after treatment
Procedure, shortened: as §2

green bristlegrass [12] = assay: as above; design: key: grade level by weed remaining vs blank control, e.g. 5 = 10.1-15%; settings: 150 g a.i./ha, visual inspection 21 days after treatment
Procedure, shortened: as §2

Convolvulus arvensis = assay: Field test for weed control in a corn field; settings: 150 g a.i./ha, after treatment
Procedure, shortened: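 Field trial of weed control against Convolvulus arvensis in corn, run following GB/T 17980.42-2000. Test agents were formulated as 10% emulsifiable concentrates and sprayed in water at 150 g(a.i.)/ha when corn plants had 2 to 5 leaves. Each treatment was replicated 4 times on 20 m^2 plots, and 25% mesotrione oil dispersion served as the control agent.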

Digitaria sanguinalis [13] = assay: Field test for weed control in a corn field; settings: 150 g a.i./ha, after treatment
Procedure, shortened: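 Field trial in a corn field following GB/T 17980.42-2000. Test compounds were formulated as 10% emulsifiable concentrates, diluted in water and sprayed post-emergence at 150 g(a.i.)/ha when corn had 2 to 5 leaves, with 4 replicates on 20 m^2 plots. Control of Digitaria sanguinalis was scored on a 1-9 scale based on weed damage relative to the untreated blank area.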

nutgrass flatsedge = assay: Field test for weed control in a corn field; settings: 150 g a.i./ha, after treatment
Procedure, shortened: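 A corn field efficacy trial following GB/T 17980.42-2000 assessed post-emergence control of nutgrass flatsedge. Test compounds were formulated as 10% emulsifiable concentrates, diluted in water, and sprayed at 150 g(a.i.)/ha when the corn had 2 to 5 leaves. Each treatment had 4 replicates on 20 m^2 plots. Herbicidal activity was graded on a 1-9 scale by damage symptoms and severity.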

Barnyard grass [14] = assay: Field test for weed control in a corn field; settings: 150 g a.i./ha, 30 days after treatment
Procedure, shortened: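 Corn-field efficacy trial following GB/T 17980.42-2000. Test compounds were formulated as 10% emulsifiable concentrates, diluted in water and sprayed post-emergence at 150 g(a.i.)/ha when corn had 2 to 5 leaves. Each treatment was replicated 4 times on 20 m^2 plots. Barnyard grass control was rated on a 1-9 damage scale.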

Amaranthus retroflexus [15] = assay: Field test for weed control in a corn field; settings: 150 g a.i./ha, 30 days after treatment
Procedure, shortened: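 Field efficacy trial in a corn field following GB/T 17980.42-2000. Test compounds were formulated as 10% emulsifiable concentrates, diluted in water and sprayed post-emergence when corn had 2 to 5 leaves. Each treatment covered 20 m^2 with 4 replicates. A 25% mesotrione oil dispersion served as control. Damage to Amaranthus retroflexus was rated on a 1-9 scale against untreated blank plots.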

Chenopodium album = assay: Field test for weed control in a corn field; settings: 150 g a.i./ha, after treatment
Procedure, shortened: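 A corn-field efficacy trial following GB/T 17980.42-2000 tested post-emergence control of Chenopodium album. Test compounds formulated as 10% emulsifiable concentrates were diluted in water and sprayed at 150 g(a.i.)/ha when the corn had 2 leaves to 5 leaves, on 20 m^2 plots with 4 replicates. Herbicidal activity was rated on a 1-9 scale by damage symptoms and severity.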

Portulaca oleracea = assay: Field test for weed control in a corn field; settings: 150 g a.i./ha, after treatment
Procedure, shortened: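 Field efficacy trial in corn following GB/T 17980.42-2000. Test compounds were prepared as 10% emulsifiable concentrates, diluted in water, and sprayed at 150 g(a.i.)/ha when corn had 2 to 5 leaves after sowing. Plots were 20 m^2 with 4 replicates per treatment. Herbicidal activity was scored on a 1-9 scale from weed damage symptoms and severity.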

Solanum nigrum = assay: Field test for weed control in a corn field; settings: 150 g a.i./ha, 30 days after treatment
Procedure, shortened: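 Post-emergence weed control was tested in a corn field following GB/T 17980.42-2000. Compounds were made into 10% emulsifiable concentrates, diluted in water and sprayed at 150 g(a.i.)/ha when corn had 2 to 5 leaves after sowing, in 20 m^2 plots with 4 replicates. Effects on Solanum nigrum were graded on a 1-9 scale relative to the blank control area.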

green bristlegrass [16] = assay: Field test for weed control in a corn field; settings: 150 g a.i./ha, after treatment
Procedure, shortened: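 Post-emergence weed control was tested in a corn field following GB/T 17980.42-2000. When the corn had 2 leaves to 5 leaves after sowing, 10% emulsifiable concentrates diluted in water were sprayed at 150 g(a.i.)/ha on 20 m^2 plots, four replicates per treatment. Effects on green bristlegrass were scored on a 1-9 damage scale relative to the blank control area.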

Acalypha australis = assay: Field test for weed control in a corn field; settings: 150 g a.i./ha, after treatment
Procedure, shortened: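 Post-emergence field trial in a corn field following GB/T 17980.42-2000. Test compounds were formulated as 10% emulsifiable concentrates, diluted in water, and sprayed at 150 g(a.i.)/ha when corn had 2 to 5 leaves, with 4 replicates on 20 m^2 plots. Mesotrione 25% oil dispersion served as the control agent. Weed control was scored on a 1-9 scale.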

goosegrass = assay: Field test for weed control in a corn field; settings: 150 g a.i./ha, after treatment
Procedure, shortened: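 Weed control efficacy against goosegrass was tested in a corn field following GB/T 17980.42-2000. Compounds formulated as 10% emulsifiable concentrates were diluted in water and sprayed post-emergence at 150 g(a.i.)/ha when corn had 2 to 5 leaves, with 4 replicates of 20 m^2 plots. Herbicidal activity was rated on a 1-9 scale by damage symptoms and severity.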

Gramineae = assay: Post-emergence herbicidal activity test in a paddy field; design: key: level scale; higher level = more weed left vs blank control; settings: 150 g a.i./ha (penoxsulam control 250 g(a.i.)/h)
Procedure, shortened: (§3)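 Efficacy was visually estimated 15 and 30 days after spraying, grading weed coverage relative to an untreated neighbouring plot (level 2 = 0 to 2.5%, level 9 = 67.6 to 100%). Treatments were 150 g(a.i.)/ha from 10% emulsifiable concentrates applied at the 4-5 leaf rice stage, four repeats of 50 m^2 each.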

Cyperaceae = assay: as above; design: key: level scale; higher level = more weed left vs blank control; settings: 150 g a.i./ha (penoxsulam control 250 g(a.i.)/h)
Procedure, shortened: as §3

Broadleaf weed = assay: as above; design: key: level scale; higher level = more weed left vs blank control; settings: 150 g a.i./ha (penoxsulam control 250 g(a.i.)/h)
Procedure, shortened: as §3

COc1cccc(CNC(=O)c2cccnc2OC)c1 [Compound A87]
Herbicidal Activity Digitaria sanguinalis (Digitaria sanguinalis [1]): 2 (equivalent to 0 to 2.5% of the weed in the blank control area) | Herbicidal Activity Amaranthus retroflexus (Amaranthus retroflexus [2]): 2 (equivalent to 0 to 2.5% of the weed in the blank control area) | Herbicidal Activity Piemarker (Piemarker [3]): 2 (equivalent to 0 to 2.5% of the weed in the blank control area) | Herbicidal Activity Barnyard grass (Barnyard grass [4]): 2 (equivalent to 0 to 2.5% of the weed in the blank control area) | Herbicidal Activity Green bristlegrass (green bristlegrass [5]): 1 | Herbicidal Activity Humulus scandens (Humulus scandens [6]): 3 (equivalent to 2.6 to 5% of the weed in the blank control area) | Herbicidal Activity Digitaria sanguinalis (Digitaria sanguinalis [7]): 1 | Herbicidal Activity Piemarker (Piemarker [8]): 1 | Herbicidal Activity Barnyard grass (Barnyard grass [9]): 2 (equivalent to 0 to 2.5% of the weed in the blank control area) | Herbicidal Activity Amaranthus retroflexus (Amaranthus retroflexus [10]): 1 | Herbicidal Activity Humulus scandens (Humulus scandens [11]): 1 | Herbicidal Activity Green bristlegrass (green bristlegrass [12]): 1 | Post-emergence weed control effect, Convolvulus arvensis (Convolvulus arvensis): 1 | Post-emergence weed control effect, Digitaria sanguinalis (Digitaria sanguinalis [13]): 2 (equivalent to 0 to 2.5% of the weed in the blank control area) | Post-emergence weed control effect, Nutgrass flatsedge (nutgrass flatsedge): 2 (equivalent to 0 to 2.5% of the weed in the blank control area) | Post-emergence weed control effect, Barnyard grass (Barnyard grass [14]): 1 | Post-emergence weed control effect, Amaranthus retroflexus (Amaranthus retroflexus [15]): 1 | Post-emergence weed control effect, Chenopodium album (Chenopodium album): 1 | Post-emergence weed control effect, Portulaca oleracea (Portulaca oleracea): 1 | Post-emergence weed control effect, Solanum nigrum (Solanum nigrum): 2 (equivalent to 0 to 2.5% of the weed in the blank control area) | Post-emergence weed control effect, Green bristlegrass (green bristlegrass [16]): 1 | Post-emergence weed control effect, Acalypha australis (Acalypha australis): 2 (equivalent to 0 to 2.5% of the weed in the blank control area) | Post-emergence weed control effect, Goose grass (goosegrass): 2 (equivalent to 0 to 2.5% of the weed in the blank control area) | Herbicidal activity 15 days after treatment Gramineae (Gramineae): 2 (equivalent to 0 to 2.5% of the weed in the blank control area) | Herbicidal activity 30 days after treatment Gramineae (Gramineae): 1 | Herbicidal activity 15 days after treatment Cyperaceae (Cyperaceae): 1 | Herbicidal activity 30 days after treatment Cyperaceae (Cyperaceae): 1 | Herbicidal activity 15 days after treatment Broadleaf weed (Broadleaf weed): 1 | Herbicidal activity 30 days after treatment Broadleaf weed (Broadleaf weed): 1

COc1ccccc1C(=O)NCc1cc(F)cc(Cl)c1 [Compound A07, N-(3-chloro-5-fluorobenzyl)-2-methoxybenzamide]
Herbicidal Activity Digitaria sanguinalis (Digitaria sanguinalis [1]): 1 | Herbicidal Activity Amaranthus retroflexus (Amaranthus retroflexus [2]): 1 | Herbicidal Activity Piemarker (Piemarker [3]): 1 | Herbicidal Activity Barnyard grass (Barnyard grass [4]): 1 | Herbicidal Activity Green bristlegrass (green bristlegrass [5]): 2 (equivalent to 0 to 2.5% of the weed in the blank control area) | Herbicidal Activity Humulus scandens (Humulus scandens [6]): 3 (equivalent to 2.6 to 5% of the weed in the blank control area) | Herbicidal Activity Digitaria sanguinalis (Digitaria sanguinalis [7]): 1 | Herbicidal Activity Piemarker (Piemarker [8]): 1 | Herbicidal Activity Barnyard grass (Barnyard grass [9]): 1 | Herbicidal Activity Amaranthus retroflexus (Amaranthus retroflexus [10]): 1 | Herbicidal Activity Humulus scandens (Humulus scandens [11]): 1 | Herbicidal Activity Green bristlegrass (green bristlegrass [12]): 2 (equivalent to 0 to 2.5% of the weed in the blank control area) | Post-emergence weed control effect, Convolvulus arvensis (Convolvulus arvensis): 1 | Post-emergence weed control effect, Digitaria sanguinalis (Digitaria sanguinalis [13]): 2 (equivalent to 0 to 2.5% of the weed in the blank control area) | Post-emergence weed control effect, Nutgrass flatsedge (nutgrass flatsedge): 2 (equivalent to 0 to 2.5% of the weed in the blank control area) | Post-emergence weed control effect, Barnyard grass (Barnyard grass [14]): 2 (equivalent to 0 to 2.5% of the weed in the blank control area) | Post-emergence weed control effect, Amaranthus retroflexus (Amaranthus retroflexus [15]): 1 | Post-emergence weed control effect, Chenopodium album (Chenopodium album): 1 | Post-emergence weed control effect, Portulaca oleracea (Portulaca oleracea): 1 | Post-emergence weed control effect, Solanum nigrum (Solanum nigrum): 2 (equivalent to 0 to 2.5% of the weed in the blank control area) | Post-emergence weed control effect, Green bristlegrass (green bristlegrass [16]): 2 (equivalent to 0 to 2.5% of the weed in the blank control area) | Post-emergence weed control effect, Acalypha australis (Acalypha australis): 2 (equivalent to 0 to 2.5% of the weed in the blank control area) | Post-emergence weed control effect, Goose grass (goosegrass): 2 (equivalent to 0 to 2.5% of the weed in the blank control area) | Herbicidal activity 15 days after treatment Gramineae (Gramineae): 2 (equivalent to 0 to 2.5% of the weed in the blank control area) | Herbicidal activity 30 days after treatment Gramineae (Gramineae): 2 (equivalent to 0 to 2.5% of the weed in the blank control area) | Herbicidal activity 15 days after treatment Cyperaceae (Cyperaceae): 1 | Herbicidal activity 30 days after treatment Cyperaceae (Cyperaceae): 2 (equivalent to 0 to 2.5% of the weed in the blank control area) | Herbicidal activity 15 days after treatment Broadleaf weed (Broadleaf weed): 2 (equivalent to 0 to 2.5% of the weed in the blank control area) | Herbicidal activity 30 days after treatment Broadleaf weed (Broadleaf weed): 1
